{"source": "patent US11466054B2", "about": "“Inhibitors of metastasis” (BIOMARCK PHARMACEUTICALS LTD., priority 2013, dated 2022)", "key": {"[1]": {"tested_on": "A549", "assay": "Transwell migration assay, A549 cells", "assay_type": "cell-based, human", "conditions": "12 hr", "protocol": "The human adenocarcinoma-derived alveolar epithelial cell line A549 (an invasive cell line) was obtained from the American Type Culture Collection (ATCC) and was cultured in RPMI-1640 supplemented with 10% fetal bovine serum and 100 U/ml penicillin/streptomycin, in 75 cm^2 tissue culture flasks. The cells reached confluence by the third day of culture at 37° C. in an atmosphere of 95% air and 5% CO2 and were maintained by serial passage.\nThe test peptides (MANS, RNS, BIO-11006, BIO-11000, BIO-11002, BIO-91200, and BIO-10901) were dissolved in PBS at a pH of 7.0; slow vortex mixing for about two hours aided solubility.\nTranswell plates (24-well, […]; Costar, Cambridge, Mass., USA) were used to conduct the migration assay. The lower chambers of the transwell plates were filled with 600 μl of basal medium containing 10% FBS. The cells (1×10^5) were suspended in 100 μl of basal medium containing 1% BSA and added to the upper chamber, and the plates incubated at 37° C. with 5% CO2 for 12 hr in PBS (control), or the indicated test peptides at 10, 25 or 50 μM. The cells on the upper surface of the filters were removed using cotton swabs. The cells that migrated to the lower surface of the filters were washed, fixed, and stained with hematoxylin and counted under the microscope. The percent change in migration is determined by counting the number of cells that migrated to the lower surface of the filters. At least four separate microscopic fields are counted per membrane, with a total of three replicate experiments at each concentration. The statistics software “Prizm” was used for data analysis."}, "[2]": {"tested_on": "Human adenocarcinoma cells (PC-9)", "assay": "Orthotopic lung cancer implantation model in SCID mice, aerosol from day 4 or day 15 (Example 5)", "assay_type": "in vivo", "conditions": "for total number of tumor nodules found in all tissues: FIG. 14", "protocol": "In this study, inhibition of lung cancer metastasis by BIO-11006 was investigated in an orthotopic lung cancer implantation model in SCID mice. Human adenocarcinoma cells (PC-9) (1-2×10^5) were suspended in 40 μL of PBS containing 0.5 mg/mL of Matrigel™ (BD Bioscience) and injected into the left lung of SCID mice (n=3) using a 29 gauge needle. BIO-11006 was administered starting either 4 days or 15 days post cancer cell inoculation by aerosol using 100 μM solution in PBS by Nebulizer Delivery System (Aeroneb Lab) over 30 min once daily for 25 days post cancer cell inoculation. At end of the experiment, the mice were sacrificed and lungs, heart, and diaphragm tissues collected and number of tumor nodules in each tissue measured. The results of this experiment are presented graphically in FIGS. 13 and 14. […] When the treatment was initiated at 15 days post inoculation of cancer cells, the inhibition of tumor metastasis was about 50% in the lungs, heart, and diaphragm. FIG. 14 depicts the total number of tumor nodules found in all tissues when peptide treatment was started at 15 days post cancer cell inoculation or 4 days post cancer cell inoculation."}, "[3]": {"conditions": "aerosol 100 μM once daily, started 4 days post inoculation, FIG. 13"}}, "note": "Where no end group is shown, it is not given here."}
{"substance": "N-acetyl-GAQFSKTAAK (Ac-GAQFSKTAAK; listed as Homo sapiens) [BIO-11006]", "values": [{"measurement": "cell numbers in comparison to control, RNS peptide and MANS peptide", "setting": "[1]; A549, 25 μm, FIG. 11", "value": "significantly reduced cell numbers"}, {"measurement": "migration index numbers relative to control and to RNS peptide", "setting": "[1]; A549, 50 μm", "value": "increased migration index numbers"}, {"measurement": "migrated cell numbers relative to control and to RNS peptide", "setting": "[1]; A549, 50 μm, FIG. 11", "value": "decreased migrated cell numbers"}, {"measurement": "inhibition of tumor metastasis in the lungs, heart, and diaphragm", "setting": "[2]; aerosol 100 μM once daily, initiated 15 days post inoculation, FIG. 13", "value": "about 50%"}, {"measurement": "inhibition of tumor metastasis in the left lung, heart, and diaphragm", "setting": "[2]; [3]", "value": "60-90%"}, {"measurement": "inhibition of tumor metastasis in the right lung", "setting": "[2]; [3]", "value": 100, "unit": "%"}, {"measurement": "total number of tumor nodules found in all tissues", "setting": "[2]; treatment starting at 4 days post cancer cell inoculation", "value": "even further reduced tumor nodules"}, {"measurement": "total number of tumor nodules found in all tissues", "setting": "[2]; treatment starting at 15 days post cancer cell inoculation", "value": "reduced tumor nodules"}]}
